These results are taken from patent publication US20020040005A1, “Composition and method of treating cancer” (priority 1995, published 2002).

The subject of one series is HeLa cells. Conditions: cited from earlier work; for cell growth: in vitro, dose dependently.
Another series deals with Raji lymphoma cells. The note with it: cited from earlier work; for cell growth: in vitro, dose dependently.
For series [1], the system named is skin tumors promoted by TPA. Conditions: two-step initiation-promotion protocol; cited from earlier work.
The test system of series [2] is 12-O-tetradecanoyl-phorbol-13-acetate (TPA) effects in mouse epidermis. The note with it: applied topically to mouse skin; cited from earlier work.
The test system of the next series is Breast carcinoma. The series can be described thus: Clinical experimental trials in Cuba, voluntary patients: breast carcinoma. In kind it is in vivo, human. The note with it: for clinical outcome: terminal. From the text: (§1) The following clinical data was collected on voluntary patients during clinical experimental trials in Cuba. A 10% concentration of tannic acid was used in all of the clinical studies set forth below.

For series [3], the system named is Acute Lymphocytic Leukemia. The series can be described thus: Clinical experimental trials in Cuba, voluntary patients: acute lymphocytic leukemia. In kind it is in vivo, human. The note with it: for time to relapse after completion of therapy: leukemia cells encysted in the testes.
From the text: as §1

Series [4] deals with Liposarcoma of the right thigh. The series can be described thus: Clinical experimental trials in Cuba, voluntary patients: liposarcoma. The class given is in vivo, human. The note with it: Patient #18, two unsuccessful operations; maximum levels, one year.
From the text: as §1

The test system of series [5] is Cancerous Lesion of the Tongue. The series can be described thus: Clinical experimental trials in Cuba, voluntary patients: cancerous lesion of the tongue. The class given is in vivo, human. The note with it: Patient #10, conventional treatment ineffective; 3 months at stage 1 dosage.
From the text: as §1

In the next series the test system is Colon Carcinoma. The series can be described thus: Clinical experimental trials in Cuba, voluntary patients: colon carcinoma. The class given is in vivo, human.
From the text: as §1

For a further series, the system named is Carcinoma of penis. The series can be described thus: Clinical experimental trials in Cuba, voluntary patients: carcinoma of penis. In kind it is in vivo, human. The note with it: Patient #11, metastasized, terminal; maximum levels after surgery, one year.
From the text: as §1

In another series the test system is Carcinoma of the Bladder. The series can be described thus: Clinical experimental trials in Cuba, voluntary patients: carcinoma of the bladder. In kind it is in vivo, human.
From the text: as §1

Another series has as its system Hodgkin's Lymphoma. The series can be described thus: Clinical experimental trials in Cuba, voluntary patients: Hodgkin's lymphoma. The note with it: Patient #14, chemotherapy discontinued, considered terminal; one year. In kind it is in vivo, human.
From the text: as §1

Series [6] has as its system epidermal PAH metabolism, PAH-induced skin tumorigenesis. Conditions: applied topically to Sencar mice; cited from earlier work.
For a further series, the system named is Carcinoma of the uterus. The series can be described thus: Clinical experimental trials in Cuba, voluntary patients: carcinoma of the uterus. In kind it is in vivo, human. The note with it: for clinical outcome: one year.
From the text: as §1

A further series deals with Multiple Myelomas. The series can be described thus: Clinical experimental trials in Cuba, voluntary patients: multiple myelomas. The class given is in vivo, human.
From the text: as §1

The test system of series [7] is Hypernephroma (Cancer of Kidney). The series can be described thus: Clinical experimental trials in Cuba, voluntary patients: hypernephroma. The class given is in vivo, human.
From the text: as §1

Another series relates to Monoblastic Leukemia. The series can be described thus: Clinical experimental trials in Cuba, voluntary patients: monoblastic leukemia. The class given is in vivo, human. Conditions: Patient #17, no improvement with chemotherapy; maximum levels, one year.
From the text: as §1

The test system of another series is Prostate Carcinoma. The series can be described thus: Clinical experimental trials in Cuba, voluntary patients: prostate carcinoma. The class given is in vivo, human. Conditions: 10% tannic acid.
From the text: as §1

Turning to `O=C(/C=C/c1ccc(O)c(O)c1)c1ccc(O)cc1O` [Butein], the growth inhibition with HeLa cells (10 microM, cell line not stated, more effective on HeLa cells) is given as 30%.

With `CC1=C(/C=C/C(C)=C/C=C/C(C)=C/CO)C(C)(C)CCC1` [Retinol, reference compound], the cell proliferation entry is recorded as “inhibited cell proliferation completely” with Raji lymphoma cells (100 microM) and “inhibited cell proliferation completely” in the series with HeLa cells (100 microM, HeLa).

With `O=c1oc2c(O)c(O)cc3c(=O)oc4c(O)c(O)cc1c4c23` [ellagic acid, reference compound], the “incidence and yield of skin tumors promoted by TPA” value in series [1] is “inhibited”. Besides, in [2], the “TPA-induced DNA synthesis” value is “inhibited”, the TPA-induced hydroperoxide production entry is “inhibited” and the “TPA-induced ornithine decarboxylase activity” value was “inhibited”.

Turning to `O=C(O)c1cc(O)c(O)c(O)c1` [gallic acid, reference compound], the cell growth entry in the series on Raji lymphoma cells and with HeLa cells (HeLa) was “inhibited” each time.

As for `O=C(OC[C@H]1O[C@@H](OC(=O)c2cc(O)c(O)c(OC(=O)c3cc(O)c(O)c(O)c3)c2)[C@H](OC(=O)c2cc(O)c(O)c(OC(=O)c3cc(O)c(O)c(O)c3)c2)[C@@H](OC(=O)c2cc(O)c(O)c(OC(=O)c3cc(O)c(O)c(O)c3)c2)[C@@H]1OC(=O)c1cc(O)c(O)c(OC(=O)c2cc(O)c(O)c(O)c2)c1)c1cc(O)c(O)c(OC(=O)c2cc(O)c(O)c(O)c2)c1` [tannic acid], the “clinical outcome (metastatic growth after surgery)” value with Breast carcinoma (Patient #2, after surgery on left breast, minimal 3 month period, 10% tannic acid) is “No additional cancerous growths were detected anywhere in their body”. In addition, the tumor size entry with Breast carcinoma (Patient #3, tumor 5 cms by 5 cms, no surgery, maximum levels, after first three month interval, 10% tannic acid) is listed as “Tumor diminished in size after first three month interval to the point where it was very difficult to detect by manual examination”. Moreover, in the series on Breast carcinoma (Patient #3, therapy continued for one year), the long-term outcome is on record as “Cancer never returned to this day”. Besides, the clinical outcome was “they were cured of cancer in all organs” in the series with Breast carcinoma (Patient #6, metastasis in skeletal system, lungs and liver, maximum therapy, one year); “the Doctor declared patient cured” with Breast carcinoma (Patient #16, metastasis in both lungs and lymph nodes, maximum levels, one and one half year); “They were cured of cancer, and has had no relapse” in series [4]; “The lesion healed and the tissue of the tongue was restored to normal” in series [5]; “Tumor disappeared and has not returned” with Colon Carcinoma (Patient #9, tumor not removed, no chemotherapy or radiation, maximum level, one year); “They have had no relapse and is cured of the cancer” with Carcinoma of penis. Moreover, the clinical outcome with Carcinoma of the Bladder (Patient #21, at 10 months) is “declared cured of cancer”; in the series with Hodgkin's Lymphoma, “they were cured of disease”; in the series on Carcinoma of the uterus (Patient #5, metastatic growth throughout internal organs, terminal, maximum levels), “They were cured of the cancer throughout their body”; in the series on Carcinoma of the uterus (Patient #7, refused further radiation, maximum dosage, no other treatments) it was “Semi-annual checkups reveal no relapse”; in the series with Monoblastic Leukemia, “They were cured of monoblastic Leukemia and has had no relapse”; in the series on Prostate Carcinoma (Patient #1, inoperative, maximum dosage, first treatment period three months) it was “Cancer was cured”. In the series with Breast carcinoma (Patient #15, left mammary gland removed, one year), the “clinical outcome at end of therapy” value is “no cancer was detected”. The “outcome of first therapy period” value is given as “Patient initially showed signs of being cured” in series [3] (Patient #8, terminal, one year at maximum dosage) and “Patient initially showed signs of being cured” in [3] (Patient #12, maximum level, one year). In addition, the results for the “time to relapse after completion of therapy” value in [3] (Patient #8) and in series [3] (Patient #12) were “two” and “about 2 years”, respectively. Besides, the “outcome of readministered therapy” value is “patient was cured” in series [3] (Patient #8, year long treatment period after relapse); “Patient was cured and subsequent check-ups have been negative” in series [3] (Patient #12, readministered for one year after relapse); “They were cured of uterine cancer” in the series with Carcinoma of the uterus (Patient #15, carcinoma of the uterus discovered two years after first therapy, readministered one year). Moreover, in [3] (Patient #13, no improvement with prior chemotherapy), the overall bloodwork result is on record as “immediately overall bloodwork returned to normal parameters”. Besides, in series [1], the “incidence and yield of skin tumors promoted by TPA” value is reported as “inhibited”. Also, the regular checkups entry in the series on Colon Carcinoma (Patient #4, maximum therapy along with chemotherapy) was “all have been negative”. Moreover, the blood work result in the series on Colon Carcinoma (Patient #4, maximum therapy simultaneously with 72 chemotherapy dosages) was “normal”. Moreover, the “potency relative to gallic acid” value in the series with Raji lymphoma cells and with HeLa cells (HeLa) was “twice as potent as its monomer gallic acid” each time. Moreover, the cell growth entry in the series on Raji lymphoma cells and in the series on HeLa cells (HeLa) was “inhibited” each time. For the same molecule, the “carcinoma size by cystoscopic exam” value with Carcinoma of the Bladder (Patient #21, refused surgery, maximum dosage, first three month check-up) was “the carcinoma had diminished in size”. Besides, the PAH-DNA adduct formation entry in series [6] is “substantial inhibition”. Moreover, in series [6], the PAH-induced skin tumorigenesis entry is recorded as “substantial inhibition”. For the same molecule, the “epidermal PAH metabolism” value in series [6] was “substantial inhibition”. The “X-rays at the end of the therapy” value in the series with Multiple Myelomas (Patient #19, metastasis in hips and ribs, maximum levels, three month period, no other therapy) is “actual regeneration of skeletal tissue and structure”. In addition, the “time to death of Myeloma after stopping treatment” value in the series on Multiple Myelomas (Patient #19, refused treatment after three months) is recorded as “four”. In addition, in series [7] (Patient #20, metastasis in lungs and ribs, terminal, maximum levels, after 20 days of therapy), the skeletal finding entry is “regeneration of ribs had occurred”. Besides, the functional status result in series [7] (Patient #20, after one month of therapy) was “the patient had returned to normal daily activities”. The survival after therapy entry in series [7] (Patient #20, therapy discontinued at three months) is “two”. Further, the catheter removal result in the series with Prostate Carcinoma (Patient #1, two weeks after initiation of therapy) is “catheter was removed”. For the same molecule, in series [2], the “TPA-induced DNA synthesis” value is “inhibited”. Besides, the TPA-induced hydroperoxide production result in [2] is reported as “inhibited”. In addition, the “TPA-induced ornithine decarboxylase activity” value in series [2] was “inhibited”.
